Source: US20110105959A1, “Novel Methods for Bone Treatment by Modulating an Arachidonic Acid Metabolic or Signaling Pathway” (ACCELALOX, INC., priority 2008, published 2011)

Legend:
[1] = system: Saos-2 cells; conditions: in vitro; LTB4 at higher concentration (0.3-1 micromolar); cited from earlier work
[2] = system: G292 cells; conditions: in vitro; LTB4 at higher concentration (0.3-1 micromolar); cited from earlier work
[3] = system: primary rat calvaria (osteoblast) cultures; conditions: in vitro; cited from earlier work
[4] = system: fetal rat calvaria (osteoblast) cells; conditions: in vitro; cited from earlier work
[5] = system: 8 mm diaphyseal segmental defect in the right femur; test: Femur segmental defect repaired with scaffold impregnated with calcium sulfate containing a leukotriene pathway modifier; type: in vivo, Sprague-Dawley rats; conditions: after 3 weeks of healing; local application in calcium sulfate, 1-5% w/w; FIG. 16
Source text: Male Sprague-Dawley rats underwent surgery during which an 8 mm diaphyseal, segmental defect in the right femur was made as described by Rai et al. [Combination of platelet-rich plasma with polycaprolactone-tricalcium phosphate scaffolds for segmental bone defect repair. Journal of Biomedical Materials Research […]:888-899 (2007)]. The defect was repaired with a polycaprolactone-tricalcium phosphate scaffold (8 mm long×3 mm diameter; Osteopore International, Singapore) or the scaffold impregnated with calcium sulfate containing a leukotriene pathway modifier. […] Journal of Medicinal Chemistry 43:721-735 (2000)]; and LY-255283 (1% w/w), a potent and specific leukotriene B4 receptor antagonist [Herron et al. Leukotriene B4 receptor antagonists: the LY255283 series of hydroxyacetophenones. Journal of Medicinal Chemistry 35:1818-1828 (1992)]. Healing of the segmental defects was assessed after 3 weeks of healing by radiographs (FIG. 16).

[6] = system: 5-lipoxygenase or LTA4 hydrolase activity measured by the level of LTB4 in platelet-rich plasma; test: Ex vivo treatment of platelet-rich plasma, leukotriene B4 levels by enzyme-linked immune-assay; type: cell-based, rat; conditions: FIG. 9; 1 ug/ml; activated with thrombin and calcium chloride
Source text: Platelet-rich plasma is used clinically to augment fracture healing and other osteogenic processes [Wrotniak et al. Current opinion about using the platelet-rich gel in orthopaedics and trauma surgery. […] Platelet-rich plasma is enriched with platelets and white blood cells from whole blood by centrifugal separation. White blood cells, such as, macrophages, monocytes, and neutrophils, are a major source of 5-lipoxygenase activity [Woods et al. 5-lipoxygenase and 5-lipoxygenase-activating protein are localized in the nuclear envelope of activated human leukocytes.
Male Sprague-Dawley rats (450-500 g body weight) were used. Platelet-rich plasma was prepared as described previously using differential centrifugation [Gandhi et al. The effects of local platelet rich plasma delivery on diabetic fracture healing. […] Five minutes after drug treatment, the treated platelet-rich plasma was activated by addition of thrombin (100 units/ml) and calcium chloride (10 mg/ml) followed by incubation for 15 minutes at 37° C. The reaction was stopped and the platelet-rich plasma was separated by high-speed centrifugation (14,000 RPM). The supernatant was collected and assayed for leukotriene B4 levels using a commercial enzyme-linked immune-assay from Cayman Chemicals, Ann Arbor, Mich.

[7] = system: mouse calvaria; conditions: in vitro organ culture; cited from earlier work
[8] = system: critical-size (8 mm) femur segmental defect; test: Critical-size femur segmental defect repaired with scaffold laden with ex vivo treated bone marrow; type: in vivo, Sprague-Dawley rats; conditions: for mineralized tissue in the femur segmental defect on radiographs: 2 weeks after implantation, marrow treated ex vivo, versus vehicle-bone marrow scaffold control; for bone remodeling at the fracture site compared to control rats: FIG. 10, bone marrow aspirate treated ex vivo prior to administration
Protocol: Critical-size (8 mm) segmental defects were made in the right femur of 450-500 g male Sprague-Dawley rats. The defects were repaired as described by Rai et al. [Combination of platelet-rich plasma with polycaprolactone-tricalcium phosphate scaffolds for segmental defect repair. Journal of Biomedical Materials Research 81A:888-899 (2007)] except the polycaprolactone-tricalcium phosphate scaffolds were filled with autologous bone marrow that was treated ex vivo as described below rather than with platelet-rich plasma.
Following induction of anesthesia, bone marrow was harvested from the left femur of each rat. A medial peripatellar incision was made to the left femur and the patella was dislocated laterally to provide access to the femoral condyles. Using an 18 gauge needle, a hole was drilled into the femoral canal and the bone marrow collected into the bore of the 18 gauge needle. The marrow was forced from the syringe needle into a small test tube using 100 μl of saline containing 20 units of heparin. The harvested marrow was then treated with the dimethyl sulfoxide (DMSO) or AA-861 (1 μl of 100 mg/ml in DMSO) which is a 5-LO inhibitor. After 5 minutes, 20 μl of a thrombin and CaCl2 solution (1,000 units thrombin per ml in 10% CaCl2) was added to each marrow sample. Each marrow sample was gently mixed and applied to a polycaprolactone-tricalcium phosphate scaffold that was set upright in a 0.2 ml tube. Each marrow-laden scaffold was incubated at room temperature for 10 minutes to allow clotting to occur and was then inserted into the femoral defects.
Critical-size femoral defects were made in male Sprague-Dawley rats as described above in EXAMPLE 7. The defects were treated with bone marrow laden scaffolds as described above. […] Journal of Medicinal Chemistry 43:721-735 (2000)] (FIG. 10C), or with (c) LY-255283 (5 μl of a 1 mg/ml solution in DMSO) which is a leukotriene B4 receptor antagonist [Herron et al. Leukotriene B4 receptor antagonists: the LY255283 series of hydroxyacetophenones. Journal of Medicinal Chemistry 35:1818-1828 (1992)] (FIG. 10D).

[9] = system: closed femur fracture; test: Closed femur fracture healing in rats treated with 5-LO inhibitors (radiographs, torsional mechanical testing); type: in vivo, Sprague-Dawley rats; conditions: for fracture bridging / healing on radiographs: Example 4, FIG. 8, NDGA 30 mg/kg or AA-861 5 mg/kg twice daily until day 21, 3 weeks of healing; for greater peak torque than vehicle treated rats: Example 4, FIG. 8D, torsional mechanical testing after 5 weeks of healing, NDGA 30 mg/kg, AA-861 5 mg/kg; for mode of femur failure in torsional mechanical testing: Example 4, after 5 weeks of healing
Protocol: Sprague-Dawley rats (3 months old) underwent a standard closed femur fracture procedure as described in the art [Simon et al., Cyclo-oxygenase 2 function is essential for bone fracture healing. Journal of Bone and Mineral Research, 17: 963-976 (2002); Bonnarens and Einhorn, Production of a standard closed fracture in laboratory animal bone. Journal of Orthopaedic Research, 2: 97-101 (1984)]. The impending fracture was stabilized with an intramedullary stainless steel pin. Beginning 4 hours after fracture the rats were treated with 30 mg/kg of NDGA (nordihydrogaiaretic acid) in 1% methylcellulose (5-lipoxygenase inhibitor treatment group) or with carrier only (1% methylcellulose). The day after surgery and continuing until day 14 post-fracture, experimental rats were treated with 2 doses of NDGA (30 mg/kg), the first dose between […] and then again with another NDGA dose 8-10 hours later. Control rats were treated similarly but with carrier only (1% methylcellulose). Three weeks after fracture, the rats were sacrificed, the fractured femurs were harvested, and high resolution radiographs were made of the fractured femurs using a Packard Faxitron and Kodak MinR2000 mammography film. Two representative radiographs are shown in FIG. 7 for each treatment group: control and 5-lipoxygenase (5-LO) inhibitor treated.
Sprague-Dawley rats (3 months old) underwent a standard closed femur fracture procedure as described in the art (Simon et al., Cyclo-oxygenase 2 function is essential for bone fracture healing. Journal of Bone and Mineral Research, 17: 963-976 (2002); Bonnarens and Einhorn, Production of a standard closed fracture in laboratory animal bone. Journal of Orthopaedic Research, 2: 97-101 (1984)]. The impending fracture was stabilized with an intramedullary stainless steel pin. Beginning 4 hours after fracture the rats were treated with vehicle (1% methylcellulose) or inhibitors of 5-LO suspended in 1% methylcellulose. Inhibitor A (NDGA) was administered at 30 mg/kg and Inhibitor B (AA-861) was administered at 5 mg/kg. The day after surgery and continuing until day 21 post-fracture, experimental rats were treated with 2 doses of inhibitor (either A or B), the first dose between 8-10 AM and then again with another dose 8-10 hours later. Control rats were treated similarly but with carrier only (1% methylcellulose). Three weeks after fracture the rats were anesthetized and high resolution radiographs were made of the fractured femurs using a Packard Faxitron and Kodak MinR2000 mammography film (FIGS. 8A, 8B, and 8C). Five weeks after fracture the rats were sacrificed, femurs resected, and assayed for structural mechanical properties by torsional mechanical testing (FIG. 8D).

Compound	Saos-2 cell proliferation [1]	alkaline phosphatase activity [4]	bone nodule formation [4]	bone formation in the segmental defect region on radiographs compared to scaffold-only group [5]	activity of 5-lipoxygenase or LTA4 hydrolase, measured by the level of the LTB4 metabolite, in platelet-rich plasma [6]	mineralized tissue in the femur segmental defect on radiographs [8]	bone remodeling at the fracture site compared to control rats [8]	further results
CCCCC/C=C\C\C=C/C=C/C=C/[C@@H](SC[C@H](NC(=O)CC[C@H](N)C(=O)O)C(=O)NCC(=O)O)[C@@H](O)CCCC(=O)O [LTC4, leukotriene C4]	no effect							G292 cell proliferation [2]: promote proliferation; proliferation of primary rat calvaria (osteoblast) cultures [3]: no effect
CCCCC/C=C\C\C=C/C=C/C=C/[C@@H](SC[C@H](N)C(=O)NCC(=O)O)[C@@H](O)CCCC(=O)O [LTD4, leukotriene D4]		no effect	no effect					
CC(C)c1ccc2c(c1)c(SC(C)(C)C)c(CC(C)(C)C(=O)O)n2Cc1ccc(Cl)cc1 [MK-886, 3-[1-(4-chlorobenzyl)-3-t-butyl-thio-5-isopropylindol-2-yl]-2,2-dimethylpropanoic acid]				significantly more bone formation	significantly reduces			
5-hydroxyeicosatetraenoic acid [5-HETE]		reduce	reduce					BMP2 induced increase in mouse calvaria thickness [7]: prevented
c1ccc(-c2ccc(OCCN3CCCC3)cc2)cc1 [SC-22716, 1-[2-(4-Phenylphenoxy)ethyl]pyrrolidine]				significantly more bone formation		more extensive mineralized tissue	more extensive bone remodeling	
CC(Cc1ccc(O)c(O)c1)C(C)Cc1ccc(O)c(O)c1 (centres unmarked) [NDGA, nordihydroguaiaretic acid]								fracture bridging / healing on radiographs [9]: fractures healing faster; greater peak torque than vehicle treated rats [9]: 22%; mode of femur failure in torsional mechanical testing [9]: failed as boney unions
CCCCC/C=C\C[C@@H](O)/C=C/C=C/C=C\[C@@H](O)CCCC(=O)O [LTB4, leukotriene B4]	promote proliferation	reduce	reduce					G292 cell proliferation [2]: promote proliferation; BMP2 induced increase in mouse calvaria thickness [7]: prevented; proliferation of primary rat calvaria (osteoblast) cultures [3]: reduces proliferation
CCc1cc(C(C)=O)c(O)cc1OCCCCCC(C)(C)c1nnn[nH]1 [LY-255283, 1-(5-ethyl-2-hydroxy-4-(6-methyl-6-(1H-tetrazol-5-yl)-heptyloxy)phenyl)ethanone]				significantly more bone formation		some evident mineralized tissue	more extensive bone remodeling	
CC1=C(C)C(=O)C(CCCCC#CCCCC#CCO)=C(C)C1=O [AA-861, 2-(12-hydroxydodeca-5,10-diynyl)-3,5,6-trimethyl-1,4-benzoquinone]	no effect			significantly more bone formation	significantly reduces	more extensive mineralized tissue	more extensive bone remodeling	fracture bridging / healing on radiographs [9]: fractures healing faster; greater peak torque than vehicle treated rats [9]: 53%; mode of femur failure in torsional mechanical testing [9]: failed as boney unions
CC(c1cc2ccccc2s1)N(O)C(N)=O (centres unmarked) [zileuton, N-(1-benzo[b]thien-2-ylethyl)-N-hydroxyurea]					significantly reduces		more extensive bone remodeling	
